The values below come from PubChem BioAssay (NCI).

The structures appear in SMILES notation.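 Where inhibition never reached the appropriate level, the endpoint shown equals the highest concentration tested. Otherwise, values were interpolated linearly from a five-concentration, 48-hour dose response in 96-well plates. TGI: total growth inhibition.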

For one test, the system named is SNB-75 CNS. Kind of test: NCI anticancer screen, dose series, 48 h.
On to `CC(C)CC(N)C(=O)OCN1C(=O)C2C3C=CC(C2C1=O)C1C2C(=O)N(COC(=O)C(N)CC(C)C)C(=O)C2C31` (stereo unspecified), for which the TGI was > 100 µM.
In the case of `COC(=O)c1cc(CC(C)C)c2c(c1)[nH]c1ccccc12`, the TGI is > 100 µM.
`C[N+](C)(C)CC(=O)N/N=c1\cc(C(=O)Nc2ccc(N=O)cc2C#N)oc2cc(O)ccc12`: the TGI is > 100 µM.
In the case of `N#CCCN(c1ccc(C=Nc2cccc([N+](=O)[O-])c2)cc1)S(=O)(=O)c1ccccc1`, the TGI was > 100 µM.
Regarding `CC1(C)CC2(C)CC1CC2O` (stereo unspecified), the TGI is > 100 µM.
Consider `COc1ccc(/C(=C/n2ccnc2)C(=O)c2ccc(OC)c(OC)c2)cc1`, for which the TGI is > 100 µM.
In turn, `Clc1cc(N/N=C(/c2ccccc2)c2ncccn2)ncn1` came in with a TGI of 74.4 µM.
`O=C1CC2(C[C@@H]3CCCCCCCCC[C@@H](C3)C2)N1` (stereo partly specified) registered a TGI of 20.6 µM.
For `Cc1c(S(=O)(=O)c2ccccc2)c(N)n(Cc2ccccc2)c1C`, the TGI is > 100 µM.
Take `CCCN=C1CC(C)Nc2ccccc2N1` (stereo unspecified): the TGI was > 100 µM.
Consider `CC(C)C(Sc1nc(-c2ccccc2)c(-c2ccccc2)[nH]1)C(=O)NNC(=S)Nc1ccccc1` (stereo unspecified), for which the TGI was 53.6 µM.
As for `COC1O[C@H]2CCN(C(=O)OCc3ccccc3)[C@H]2[C@H]1OCc1ccccc1` (stereo partly specified), the TGI is > 100 µM.
For the compound `COc1ccc(C2C(Cl)C(=O)N2NC(=O)c2ccc(NC(C)=O)cc2)cc1` (stereo unspecified), the TGI was > 100 µM.
As for `c1ccc(C[P+]2(c3ccccc3)c3ccccc3-c3ccccc32)cc1`, the TGI was > 100 µM.
Turning to `Cc1c(Cl)cccc1NC(=O)C(=O)C1C(=O)CC(C)(C)CC1=O`, the TGI is > 100 µM.
As for `C=CCN(CC=C)Cn1c(=S)sc2ccccc21`, the TGI is > 100 µM.
`O=C1O[C@@H](c2ccccc2)C[C@@H]1CN1CCOCC1`: the TGI was > 100 µM.
Consider `COc1ccc2nc(-c3ccc(OCc4ccccc4)cc3)ccc2c1`, for which the TGI was > 100 µM.
`N#C/C(=C\NC(=S)Nc1ccc(S(=O)(=O)Nc2ccccn2)cc1)C(N)=O`: the TGI is > 100 µM.
For the compound `COC1(C)CC2N(C(=O)c3ccccc3)N=C(c3ccccc3)CC2(C)O1` (stereo unspecified), the TGI was > 100 µM.
Consider `Nc1ccccc1Nc1ccccc1C(=O)[O-].Nc1ccccc1Nc1ccccc1C(=O)[O-].[Cu+2]`, for which the TGI is > 100 µM.
With `CCOC(=O)C(OCC1CC=CCC1)Sc1ccccc1` (stereo unspecified), the TGI was > 100 µM.
For `O=C(NS(=O)(=O)Nc1ccc(Cl)cc1)OCc1ccc(Cl)cc1Cl`, the TGI is > 100 µM.

The subject of a further test is NCI-H226 lung. Kind of test: NCI anticancer screen, dose series, 48 h.
Regarding `Nc1nc2ncc(SCc3ccc(C(=O)NC(CCC(=O)O)C(=O)O)cc3)cc2c(=O)[nH]1` (stereo unspecified), the TGI is > 100 µM.
Same read-out and setting: the value for `CC(C)CC(N)C(=O)OCN1C(=O)C2C3C=CC(C2C1=O)C1C2C(=O)N(COC(=O)C(N)CC(C)C)C(=O)C2C31` (stereo unspecified) was > 100 µM; that for `COC(=O)c1cc(CC(C)C)c2c(c1)[nH]c1ccccc12` was > 100 µM; that for `C[N+](C)(C)CC(=O)N/N=c1\cc(C(=O)Nc2ccc(N=O)cc2C#N)oc2cc(O)ccc12` was > 100 µM.
`N#CCCN(c1ccc(C=Nc2cccc([N+](=O)[O-])c2)cc1)S(=O)(=O)c1ccccc1`: the TGI was > 100 µM.
With `CC1(C)CC2(C)CC1CC2O` (stereo unspecified), the TGI is > 100 µM.
Consider `COc1ccc(/C(=C/n2ccnc2)C(=O)c2ccc(OC)c(OC)c2)cc1`, for which the TGI was > 100 µM.
Turning to `Clc1cc(N/N=C(/c2ccccc2)c2ncccn2)ncn1`, the TGI is > 100 µM.
As for `O=C1CC2(C[C@@H]3CCCCCCCCC[C@@H](C3)C2)N1` (stereo partly specified), the TGI is 30.8 µM.
Consider `Cc1c(S(=O)(=O)c2ccccc2)c(N)n(Cc2ccccc2)c1C`, for which the TGI is > 100 µM.
Consider `CCCN=C1CC(C)Nc2ccccc2N1` (stereo unspecified), for which the TGI is > 100 µM.
As for `CC(C)C(Sc1nc(-c2ccccc2)c(-c2ccccc2)[nH]1)C(=O)NNC(=S)Nc1ccccc1` (stereo unspecified), the TGI was 37.2 µM.
On to `COC1O[C@H]2CCN(C(=O)OCc3ccccc3)[C@H]2[C@H]1OCc1ccccc1` (stereo partly specified), for which the TGI was > 100 µM.
Take `COc1ccc(C2C(Cl)C(=O)N2NC(=O)c2ccc(NC(C)=O)cc2)cc1` (stereo unspecified): the TGI is > 100 µM.
Still for that read-out and setting: with `c1ccc(C[P+]2(c3ccccc3)c3ccccc3-c3ccccc32)cc1` the figure was > 100 µM; with `Cc1c(Cl)cccc1NC(=O)C(=O)C1C(=O)CC(C)(C)CC1=O`, > 100 µM; with `O=C1O[C@@H](c2ccccc2)C[C@@H]1CN1CCOCC1`, > 100 µM.
With `COc1ccc2nc(-c3ccc(OCc4ccccc4)cc3)ccc2c1`, the TGI was > 100 µM.
The same measure, in the same setting: with `N#C/C(=C\NC(=S)Nc1ccc(S(=O)(=O)Nc2ccccn2)cc1)C(N)=O` the figure was > 100 µM.
Still for that read-out and setting: with `COC1(C)CC2N(C(=O)c3ccccc3)N=C(c3ccccc3)CC2(C)O1` (stereo unspecified) the figure was > 100 µM; with `Cc1c(Cl)ccc2c(=O)c3cccc(CC(=O)O)c3oc12`, > 100 µM; with `Cc1ccccc1C1OC1C(=O)c1ccccc1N` (stereo unspecified), > 100 µM.

For the next test, the system named is HOP-92 NSCLC. Kind of test: NCI anticancer screen, dose series, 48 h.
Regarding `Nc1nc2ncc(SCc3ccc(C(=O)NC(CCC(=O)O)C(=O)O)cc3)cc2c(=O)[nH]1` (stereo unspecified), the TGI was > 100 µM.
On to `CC(C)CC(N)C(=O)OCN1C(=O)C2C3C=CC(C2C1=O)C1C2C(=O)N(COC(=O)C(N)CC(C)C)C(=O)C2C31` (stereo unspecified), for which the TGI was > 100 µM.
In the case of `COC(=O)c1cc(CC(C)C)c2c(c1)[nH]c1ccccc12`, the TGI was > 100 µM.
Regarding `C[N+](C)(C)CC(=O)N/N=c1\cc(C(=O)Nc2ccc(N=O)cc2C#N)oc2cc(O)ccc12`, the TGI was > 100 µM.
As for `N#CCCN(c1ccc(C=Nc2cccc([N+](=O)[O-])c2)cc1)S(=O)(=O)c1ccccc1`, the TGI was > 100 µM.
Regarding `COc1ccc(/C(=C/n2ccnc2)C(=O)c2ccc(OC)c(OC)c2)cc1`, the TGI is > 100 µM.
With `Clc1cc(N/N=C(/c2ccccc2)c2ncccn2)ncn1`, the TGI was 36.6 µM.
Compound `O=C1CC2(C[C@@H]3CCCCCCCCC[C@@H](C3)C2)N1` (stereo partly specified) returned a TGI of 23 µM.
As to `Cc1c(S(=O)(=O)c2ccccc2)c(N)n(Cc2ccccc2)c1C`, the TGI is > 100 µM.
Turning to `CC(C)C(Sc1nc(-c2ccccc2)c(-c2ccccc2)[nH]1)C(=O)NNC(=S)Nc1ccccc1` (stereo unspecified), the TGI was 34.3 µM.
The same measure, in the same setting: with `COC1O[C@H]2CCN(C(=O)OCc3ccccc3)[C@H]2[C@H]1OCc1ccccc1` (stereo partly specified) the figure was > 86 µM.
In the case of `COc1ccc(C2C(Cl)C(=O)N2NC(=O)c2ccc(NC(C)=O)cc2)cc1` (stereo unspecified), the TGI is > 100 µM.
Consider `c1ccc(C[P+]2(c3ccccc3)c3ccccc3-c3ccccc32)cc1`, for which the TGI is > 100 µM.
The same measure, in the same setting: with `Cc1c(Cl)cccc1NC(=O)C(=O)C1C(=O)CC(C)(C)CC1=O` the figure was > 100 µM; with `C=CCN(CC=C)Cn1c(=S)sc2ccccc21`, > 100 µM.
For the compound `O=C1O[C@@H](c2ccccc2)C[C@@H]1CN1CCOCC1`, the TGI was > 100 µM.
As for `COc1ccc2nc(-c3ccc(OCc4ccccc4)cc3)ccc2c1`, the TGI is > 100 µM.
On the same count and under the same terms, with `N#C/C(=C\NC(=S)Nc1ccc(S(=O)(=O)Nc2ccccn2)cc1)C(N)=O` the figure was > 100 µM; with `COC1(C)CC2N(C(=O)c3ccccc3)N=C(c3ccccc3)CC2(C)O1` (stereo unspecified), > 100 µM.
On to `Cc1c(Cl)ccc2c(=O)c3cccc(CC(=O)O)c3oc12`, for which the TGI was > 100 µM.
Still for that read-out and setting: with `Cc1ccccc1C1OC1C(=O)c1ccccc1N` (stereo unspecified) the figure was > 100 µM.
